Data reported in US20250197428A1, “INHIBITORS OF KIF18A AND USES THEREOF” (ACCENT THERAPEUTICS, INC., priority 2022, published 2025).
Where two headings read alike, the source gives them in different places.

Columns and labels:
[1] = molecular target: KIF18A (Homo sapiens (Human), UniProt Q8NI77); experiment: KIF18A Biochemical Assay (ATPase, ADP-Glo)
[2] = tested on: OVCAR-3 cells; experiment: In vitro anti-proliferative activity assay in cancer cell line OVCAR-3 (CellTiter-Glo, 4- or 7-day); type: cell-based; conditions: read-out: OVCAR-3 cellular antiproliferation assay IC50
[3] = Caco-2 permeation assay, bidirectional permeability; type: in vitro ADME; conditions: human, Caco-2, pH 7.4, 5 μM, Papp(B-A)/Papp(A-B)
In short: (§1)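 Bidirectional A→B and B→A transport of 5 μM compound in HBSS (10 mM HEPES, pH 7.4), receiver containing 2% BSA, 2 h at 37 °C on 14-day monolayers. Papp from LC-MS/MS peak areas; efflux ratio Papp(B-A)/Papp(A-B), plus recovery. Lucifer Yellow leakage <1% required for monolayer acceptance.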

[4] = tested on: human megakaryocyte (CFU-MK) progenitors from human bone marrow mononuclear cells; experiment: Human megakaryocyte progenitor colony formation assay (CFU-MK); type: cell-based; conditions: 336 h, 14 days culture, adjusted for binding to assay buffer, read-out: Free-fraction adjusted CFU-MK IC50
[5] = In vivo pharmacokinetic evaluation in mouse; parameters: species or system female balb/c nude mice; conditions: for IV Clearance / Vd: 3 mg/kg IV; for Vd / Cmax / half-life: female, balb/c nude, plasma; for Vd: read-out: IV Vss; for Cmax / half-life: 10 mg/kg PO; for half-life: read-out: PO T1/2 (converted)
[6] = tested on: OVCAR-3 xenografts; experiment: 28 day in vivo efficacy in OVCAR-3 xenografts; parameters: species or system female NOD SCID mice; conditions: oral
Experimental: Experiments were performed in female NOD SCID mice (GenPharmatech Co.). Animals were allowed to acclimate for 7 days before the study. The general health of the animals were evaluated by a veterinarian, and complete health checks were performed prior to the study. General procedures for animal care and housing were in accordance with the standard, Commission on Life Sciences, National Research Council, Standard Operating Procedures (SOPs) of Pharmaron, Inc. The mice were kept in laminar flow rooms at constant temperature and humidity with 3-5 mice in each cage. Animals were housed in polycarbonate cages which had dimensions of 300×180×150 mm^3 and in an environmentally monitored, well-ventilated room maintained at a temperature of 23±3° C. and a relative humidity of 40%-70%. Fluorescent lighting provided illumination approximately 12 hours per day. Animals had free access to irradiation sterilized dry granule food during the entire study period except for time periods specified by the protocol, as well as sterile drinking water in a bottle that was available ad libitum during the quarantine and study periods.
The OVCAR-3 (ATCC) tumor cell lines were maintained in vitro as a monolayer in RPMI 1640 medium supplemented with 20% heat inactivated FBS, at 37° C. in an atmosphere of 5% CO2 in air. The tumor cells were sub-cultured, not exceeding 4-5 passages, and cells growing in an exponential growth phase were harvested and counted for tumor inoculation. Each mouse was inoculated subcutaneously on the right flank with OVCAR-3 tumor cells (2×10^7) in 0.2 mL of RPMI-1640 with Matrigel (1:1) for model development.
Treatment was started when the mean tumor size reached approximately 150-200 mm^3, at which time the mice were randomized into treatment groups such that the average starting tumor size is similar for each treatment group. Animals were then treated with vehicle or indicated mg/kg (10-100) of compound at a given frequency (e.g., BID, QD, 4 days on treatment followed by 3 days off treatment) by oral gavage at a final dosing volume of 10 mL/kg.
The measurement of tumor size was conducted with a caliper and recorded twice per […] week. The tumor volume (TV) (mm^3) was estimated using the formula: TV=a×b^2/2, where “a” and “b” are long and short diameters of a tumor, respectively.
The TVs were used for calculation of the tumor growth inhibition and tumor growth delay. For the tumor growth inhibition (TGI), the value using the formula: […]
The “TVfinal” and “TVinitial” are the mean tumor volumes on the final day and initial day, respectively.
All statistical tests was conducted on GraphPad, and the level of significance was set at 5% or P<0.05. The group means and standard deviations were calculated for all measurement parameters. Two-way RM ANOVA followed by Tukeys post hoc comparisons of the means was applied among groups.
Additionally, after compound treatment, the animals were observed an additional 28 days without compound treatment.
The initial treatment period with Example 1 was 28 days, after which overall efficacy and tolerability were evaluated based on tumor volume and body weight changes observed during the treatment period (FIG. 2a and FIG. 2b).
The initial treatment period with Example 1 was 28 days, after which overall efficacy and tolerability were evaluated based on tumor volume and body weight changes observed during the treatment period (FIG. 3a and FIG. 3b).

[7] = Tolerability (body weight) in 28 day OVCAR-3 xenograft study; type: in vivo; conditions: all concentrations dosed, 28 day treatment
[8] = tested on: Caco-2 cell monolayers; experiment: Caco-2 permeation assay, bidirectional permeability; type: in vitro ADME; conditions: 5 μM, 2 h, Papp(B-A)/Papp(A-B)
In short: as §1

[9] = Homo sapiens, OVCAR-3, 96 h, 4-day assay
[10] = day 28, 100 mg/kg once daily for 4 days followed by 3 days of no dosing

Chain of KIF18A (Q8NI77 1-367): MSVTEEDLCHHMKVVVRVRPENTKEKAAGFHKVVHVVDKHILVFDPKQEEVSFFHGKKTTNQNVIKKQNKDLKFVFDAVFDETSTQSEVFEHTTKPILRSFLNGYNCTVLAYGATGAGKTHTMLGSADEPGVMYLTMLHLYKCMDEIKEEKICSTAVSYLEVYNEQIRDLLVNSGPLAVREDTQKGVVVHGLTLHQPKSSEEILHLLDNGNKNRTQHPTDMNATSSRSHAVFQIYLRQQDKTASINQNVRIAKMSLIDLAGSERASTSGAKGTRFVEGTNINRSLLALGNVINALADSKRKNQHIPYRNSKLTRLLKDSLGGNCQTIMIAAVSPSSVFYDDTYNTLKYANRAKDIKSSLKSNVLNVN
Chain of KIF18A (P02550 whole entry partner): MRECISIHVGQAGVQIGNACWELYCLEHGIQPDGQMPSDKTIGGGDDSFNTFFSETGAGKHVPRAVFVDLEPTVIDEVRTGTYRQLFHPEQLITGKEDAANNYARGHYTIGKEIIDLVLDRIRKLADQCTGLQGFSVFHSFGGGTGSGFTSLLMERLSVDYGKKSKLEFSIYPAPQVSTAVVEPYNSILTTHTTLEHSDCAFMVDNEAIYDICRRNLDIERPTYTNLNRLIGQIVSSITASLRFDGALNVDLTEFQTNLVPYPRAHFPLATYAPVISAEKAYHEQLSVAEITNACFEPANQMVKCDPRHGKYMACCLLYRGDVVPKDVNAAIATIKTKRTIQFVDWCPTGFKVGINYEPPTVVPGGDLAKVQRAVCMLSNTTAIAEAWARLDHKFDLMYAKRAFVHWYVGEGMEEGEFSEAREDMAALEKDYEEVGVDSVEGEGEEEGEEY
Chain of KIF18A (P02554 whole entry partner): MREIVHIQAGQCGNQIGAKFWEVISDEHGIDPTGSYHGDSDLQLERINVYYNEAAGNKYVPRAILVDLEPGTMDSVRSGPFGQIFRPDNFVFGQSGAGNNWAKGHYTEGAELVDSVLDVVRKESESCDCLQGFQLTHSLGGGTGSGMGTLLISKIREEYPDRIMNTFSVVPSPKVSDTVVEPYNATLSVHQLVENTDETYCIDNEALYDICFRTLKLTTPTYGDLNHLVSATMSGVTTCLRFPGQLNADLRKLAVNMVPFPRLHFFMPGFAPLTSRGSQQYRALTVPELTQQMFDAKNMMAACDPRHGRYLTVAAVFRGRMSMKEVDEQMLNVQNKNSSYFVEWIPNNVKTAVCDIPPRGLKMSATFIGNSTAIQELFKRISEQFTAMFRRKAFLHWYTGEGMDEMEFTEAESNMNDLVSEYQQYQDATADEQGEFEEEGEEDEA

| IC50 ([2]; 7-day assay) [nM] | Caco-2 assay efflux ratio [8] | Structure (SMILES) | IC50 [1] [nM] | IC50 [2, 9] [nM] | efflux ratio at 2 h, 5 μM [3] | IC50 [4] [nM] | IV Clearance [5] [mL/ming/kg] | Vd [5] [L/kg] | Cmax [5] [ng/mL] | half-life [5] [h] | % T/C [6, 10] [%] | % TGI [6, 10] [%] | Tolerability based on body weight [7] | % T/C ([6]; day 28, 100 mg/kg once daily) [%] | % TGI ([6]; day 28, 100 mg/kg once daily) [%] |
| --- | --- | --- | --- | --- | --- | --- | --- | --- | --- | --- | --- | --- | --- | --- | --- |
|  |  | Cc1cc(NC(=O)c2ccc(NS(=O)(=O)CCO)cc2N2CC[Si](C)(C)CC2)nc(C2CCC(F)(F)CC2)n1 [Example 1, N-(2-(4,4-difluorocyclohexyl)-6-methylpyrimidin-4-yl)-2-(4,4-dimethyl-1,4-azasilinan-1-yl)-4-((2-hydroxyethyl)sulfonamido)benzamide] | < 100 | < 100 | < 10 | 17 | 3.6 | 2.7 | 2900 | 8.9 | −2 | 102 | well tolerated |  |  |
|  |  | Cc1cc(NC(=O)c2ccc(NS(=O)(=O)CCO)cc2N2CC[Si](C)(C)CC2)nc(N2CCC(F)(F)CC2)n1 [Example 9, N-[2-(4,4-difluoropiperidin-1-yl)-6-methylpyrimidin-4-yl]-2-(4,4-dimethyl-1,4-azasilinan-1-yl)-4-(2-hydroxyethanesulfonamido)benzamide] | 100 to 500 | < 100 | < 10 |  | 1.7 | 2.5 | 3100 | 14.5 |  |  | well tolerated | −4 | 104 |
| 100 to 500 | ** (“**” means efflux ratio of <10) | Cc1cc(NC(=O)c2ccc(NS(=O)(=O)CCO)cc2N2CC[C@]3(C(F)F)C[C@@H]3C2)nc(N2CCC(F)(F)CC2)n1 [Example 86] | < 100 |  |  |  |  |  |  |  |  |  |  |  |  |
